Results from patent publication EP2110134A1, “Cocoa extract compounds and methods for making and using the same” (MARS, INCORPORATED, priority 1996, dated 1997).

Tests used:
[1] = Rancimat oxidative stability test; conditions: 100°C, 20 cc/min air
Protocol: The procedures described in Examples 1, 2 and 3 were used to prepare cocoa extracts which were manipulated further to produce two fractions from gel permeation chromatography. These two fractions are actually combined fractions A through C, and D and E (See Figure 1) whose antioxidant properties were compared against the synthetic antioxidants BHA and BHT.
Peanut Oil was pressed from unroasted peanuts after the skins were removed. 50µL of methanol solubilized antioxidant was added to each sample to aid in dispersion of the antioxidant. A control sample was prepared with 50µL of methanol containing no antioxidant.
The samples were evaluated in duplicate, for oxidative stability using the Rancimat stability test at 100°C and 20 cc/min of air. Experimental parameters were chosen to match those used with the Active Oxygen Method (AOM) or Swift Stability Test (Van Oosten et al., 1981). Results are reported in Table 8 as hours required to reach a peroxide level of 100 meq. Table 7: Concentrations of Antioxidants

Helicobacter pylori = assay: Disk diffusion bioassay; assay type: cell-based; conditions: control disk, 80ug, read-out: H. pylori Inhibition
Protocol: (§1) A study was conducted to evaluate the antimicrobial activity of procyanidin oligomers against Helicobacter pylori and Staphylococcus aureus. Pentamer enriched material was prepared as described in Example 13, Method A and analyzed as described in Example 14, Method C, where 89% was pentamer, and 11% was higher oligomers (n is 6 to 12). Purified pentamer (96.3%) was prepared as described in Example 14, Method D.
(§2) Helicobacter pylori and Staphylococcus aureus were obtained from the American Type Culture Collection (ATCC). For H. pylori, the vial was rehydrated with 0.5 mL Trypticase Soy broth and the suspension transferred to a slant of fresh TSA containing 5% defibrinated sheep blood. The slant was incubated at 37°C for 3 to 5 days under microaerophilic conditions in anaerobic jars (5 to 10% carbon dioxide; CampyPakPlus, BBL). When good growth was established in the pool of broth at the bottom of the slant, the broth was used to inoculate additional slants of TSA with sheep blood. Because viability decreased with continued subculturing, the broth harvested from the slants was pooled and stored at -80°C. Cultures for assay were used directly from the frozen vials. […]
(§3) A cell suspension of each culture was prepared (H. pylori, 10^8 to 10^9 cfu/mL; S. aureus 10^6 to 10^7 cfu/mL) and 0.5 mL spread onto TSA plates with 5% sheep blood. […] Zones of inhibition were measured following outgrowth. […]

Staphylococcus aureus = assay: Disk diffusion bioassay; assay type: cell-based; conditions: read-out: S. aureus Inhibition
Protocol: as §1, §2, §3

[2] = tested on: Human umbilical vein endothelial cells (HUVEC); assay: NO production by HUVEC, Griess reaction; assay type: cell-based
Protocol: Human umbilical vein endothelial cells (HUVEC) were obtained from Clonetics and cultures were carried out according to the manufacturer's specifications. HUVEC cells were seeded at 5,000 cells/cm^2 in 12-well plates (Falcon). After the third passage under the same conditions, they were allowed to reach confluence. The supernatant was renewed with fresh medium containing defined concentrations of bradykinin (25,50 and 100nM) or cocoa procyanidin fractions A-E (100µg/mL) as described in example 31. The culture was continued for 24 hr. and the cell free supernatants were collected and stored frozen prior to assessment of NO content as described below. In selected experiments, the NO synthase (NOS) antagonist, Nω-nitro-L-arginine methyl ester (L-NAME, 10µM) was added to assess the involvement of NOS in the observed NO production.
HUVEC NO production was estimated by measuring nitrite concentration in the culture supernatant by the Griess reaction. Griess reagent was 1% sulfanilamide, 0.1% N-(1-naphthyl)-ethylenediamine dihydrochloride. Briefly, 50µL aliquots were removed from the various supernatants in quadruplicate and incubated with 150µL of the Griess reagent. The absorbency at 540 nm was determined in a multiscan (Labsystems Multiskans MCC/340) apparatus. Sodium nitrite was used at defined concentrations to establish standard curves. […]

## COc1ccc(O)c(C(C)(C)C)c1 [BHA, Butylated Hydroxyanisole]
[1]; 20 ppm nominal (actual levels in Table 7), control 10.5 ± 0.7
  hours required to reach a peroxide level of 100 meq: 13.5 ± 2.1 h
[1]; 100 ppm nominal (actual levels in Table 7)
  hours required to reach a peroxide level of 100 meq: 14.0 ± 1.4 h

## Cc1ncc([N+](=O)[O-])n1CCO [Metronidazole standard, metronidazole]
Helicobacter pylori
  zone of inhibition at 80 µg/disc: 11 mm

## CN[C@H](CC(C)C)C(=O)N[C@H]1C(=O)N[C@@H](CC(N)=O)C(=O)N[C@H]2C(=O)N[C@H]3C(=O)N[C@H](C(=O)N[C@H](C(=O)O)c4cc(O)cc(O)c4-c4cc3ccc4O)[C@H](O)c3ccc(c(Cl)c3)Oc3cc2cc(c3O[C@@H]2O[C@H](CO)[C@@H](O)[C@H](O)[C@H]2O[C@H]2C[C@](C)(N)[C@H](O)[C@H](C)O2)Oc2ccc(cc2Cl)[C@H]1O [Vancomycin standard, vancomycin]
Staphylococcus aureus
  zone of inhibition at 30 µg/disc: 15 mm

## bradykinin (RPPGFSPFR; Bradykinin; UniProt P01042 381-389, looked up)
[2]; 25, 50 and 100nM, 24 hr
  NO production by HUVEC: dose dependent release of NO
[2]; L-NAME 10µM
  NO release in the presence of L-NAME: completely inhibited
